Where a name gives a salt, the structure may show the parent alone. Read-outs that look alike come from different tables or passages of the source.
Columns and labels:
[1] = tested on: ligand-inducible IFNAR1 degron kinase activity; test: Phosphorylation-binding assay: GST-IFNAR1 phosphorylated by CK1α-depleted lysates of IFN-α-treated cells, then binding of 35S-labeled β-Trcp2; type: biochemical, human; settings: inhibitor added in vitro: H89 200 nM, BAY43-9006 50 nM, Bis-I 25 nM, Gö6976 25 nM, LY294002 1.5 μM, SP600125 100 nM, D4476 400 nM, SB203580 100 nM
Method: For some binding assays, the lysates from 293T cells (treated for various tunes with IFN-α, 2000 IU/mL) were depleted of CK1α (as described previously (Liu, et al., 2009, Mal Cell Biol 29(24):6401-12) were incubated with GST-IFNAR1 proteins (wild type or S535,539A mutant that migrates slower on SDS-PAGE due to the presence of four additional amino acids in the linker), ATP and kinase inhibitors (as indicated) for 30 min at 30° C. After that, GST-IFNAR1 were purified and incubated with in vitro translated and 35S-methionine-labeled 3-Trcp2 for 1 h at 4° C.; this binding was later analyzed by autoradiography and Coomassie staining. In vitro serine phosphorylation of GST-IFNAR1 (analyzed by autoradiography or IB with pS535 antibody) by cell extracts or PKD preparations and tyrosine phosphorylation of GST-PKD2 by Tyk2 was carried out and analyzed as described elsewhere herein.
For other binding assays, the lysates from 293T cells (treated for various times with IFN-α, 2000 IU/mL) underwent two rounds of immunodepletion of CK1α as described elsewhere (Liu, et al., 2009, Mol Cell Biol 29(24):6401-12). GST-IFNAR1 proteins (wild type or S535,539A mutant that migrates slower on SDS-PAGE due to the presence of four additional amino acids in the linker (Liu et al., 2009, Cell Host Microbe 5(1):72-83)) were expressed and purified from bacterial cells using glutathione Sepharose. Purified bacterial proteins (2 μg) were incubated in the presence of CK1α-depleted cell lysates (5 μg), unlabeled ATP (0.5 mM) in total volume of 20 μL (containing 25 mM Tris-HCL pH 7.5, 5 mM MgCl2, 100 mM KCl, 1 mM EGTA, 1 mM Na3VO4, 0.1 mM DTT and 3.5% glycerol) for 30 min at 30° C. When indicated, the following kinase inhibitors were added to the reaction in I pi, of DMSO to the final concentration indicated: H89 (200 nM), BAY43-9006 (50 nM), Bis-I (25 nM), Gö6976 (25 nM), LY294002 (1.5 μM), SP600125 (100 nM), D4476 (400 nM), SB203580 (100 nM). The reactions were stopped by placing the tubes on ice and adding 150 μL of ice-cold binding buffer (PBS supplemented with 0.1% NP40 and 50 mM NaF) and incubated with glutathione Sepharose beads (20 μL) for 2 h at 4° C. The beads were then washed three times with 0.5 mL of binding buffer and incubated with 2 μL of in vitro translated and 35S-methionine-labeled13-Trcp2 for 1 h at 4° C. Beads were then washed three times with 1 mL of binding buffer, and the proteins were eluted using Laemmli buffer, resolved by SDS-PAGE, and analyzed by autoradiography and Coomassie staining.

[2] = tested on: IFNAR1 Ser535 phosphorylation; type: cell-based, human
[3] = tested on: IFNAR1
[4] = tested on: IFNAR1 Ser535 phosphorylation; test: IFN-α-induced Ser535 (degron) phosphorylation of IFNAR1 in cells, IP-immunoblot with anti-pS535; type: cell-based, human
Method: Immunoprecipitation and immunoblotting procedures are described elsewhere (Fuchs et al, 1999, Oncogene 18:2039-2046). Protein degradation was carried out by cycloheximide (CHX, used at 20 μg/ml) chase. IFNAR1 internalization assay was carried out using the Fluorescence-based assay as described elsewhere (Kumar et al., 2007, J Cell Biol 179:935-950). BAY 43-9006 was obtained as a gift. Recombinant human IFN-a2 (Roferon) was purchased from Roche. Other reagents or inhibitors were purchased from commercial vendors.
Antibodies against Flag, GST and j3-actin (Sigma), HA (12CA, Roche), CK1α, PICD1/2 (PKCμ), PKD3 (PKCν), Tyk2, intracellular domain of hIFNAR1 and PKR, (Santa Cruz), anti-pan-phospho-tyrosine (4G10), phospho-Stat1 and Stat1 (Cell signaling), phospho-S710 of PKD2 (Biosource), PKD2 (Bethyl Laboratories), mIFNAR1 (Leinco) and ubiquitin (FK2, Biomol) were purchased. AA3, GB8 and EAl2 antibodies which recognize endogenous IFNAR1 (Goldman et al., 1999) and antibodies against IFNAR1 phosphorylated on Ser535 (pS535; (Kumar et al., 2004, J Biol Chem 279:46614-46620)) were described previously. Secondary antibodies conjugated to horseradish peroxidase were purchased from Chemicon and LI-COR. Immunoprecipitation and immunoblotting procedures are described elsewhere (Fuchs et al, 1999, Oncogene 18:2039-2046). Protein degradation was carried out by cycloheximide (CHX) chase in the presence of CHX (20 μg/ml). Immunoblot detection and quantification were carried out using the LI-COR's Odyssey Infrared Imaging System.

[5] = tested on: protein kinase D (PKD); settings: literature (Gschwendt et al., 1996; Sharlow et al., 2008); cited from earlier work
[6] = target: T1, PKD2 (Homo sapiens, UniProt Q9BZL6); test: In vitro phosphorylation of GST-IFNAR1 on Ser535 by purified GST-PKD2; type: biochemical; parameters: made in house; host or cells: 293T cells (human), transient expression, glutathione pull-down; settings: Gö6976 20-200 nM
T1 sequence (Q9BZL6 1-878): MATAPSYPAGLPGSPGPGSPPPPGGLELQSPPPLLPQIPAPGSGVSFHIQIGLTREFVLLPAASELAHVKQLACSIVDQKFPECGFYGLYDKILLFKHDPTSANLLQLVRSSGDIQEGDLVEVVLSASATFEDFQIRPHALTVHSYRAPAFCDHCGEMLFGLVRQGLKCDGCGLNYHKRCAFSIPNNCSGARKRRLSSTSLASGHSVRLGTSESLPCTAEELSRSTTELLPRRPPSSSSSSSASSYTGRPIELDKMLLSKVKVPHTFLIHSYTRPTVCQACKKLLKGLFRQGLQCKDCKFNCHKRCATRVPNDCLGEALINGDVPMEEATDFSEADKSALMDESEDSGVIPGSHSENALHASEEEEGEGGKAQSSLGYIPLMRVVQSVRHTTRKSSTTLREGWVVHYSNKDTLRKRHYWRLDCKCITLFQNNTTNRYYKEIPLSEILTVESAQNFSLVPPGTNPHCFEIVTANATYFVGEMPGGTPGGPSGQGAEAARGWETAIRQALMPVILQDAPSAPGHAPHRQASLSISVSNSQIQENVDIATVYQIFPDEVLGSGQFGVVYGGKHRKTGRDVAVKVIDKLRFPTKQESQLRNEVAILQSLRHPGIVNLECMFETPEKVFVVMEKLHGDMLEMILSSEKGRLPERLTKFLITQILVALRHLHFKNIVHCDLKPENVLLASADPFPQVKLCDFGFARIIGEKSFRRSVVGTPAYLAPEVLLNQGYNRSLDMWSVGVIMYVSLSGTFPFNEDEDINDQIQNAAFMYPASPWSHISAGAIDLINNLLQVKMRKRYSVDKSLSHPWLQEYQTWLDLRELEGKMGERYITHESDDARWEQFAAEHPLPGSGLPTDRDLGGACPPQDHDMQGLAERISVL
Method: In vitro phosphorylation of GST-IFNAR1 by cell extracts or PKD preparations (via immunopurification or GST pulldown) was carried out in kinase buffer (50 mM Tris-HCl pH 7.4, 10 mM MgC12, and 2 mM DTT) with either 0.2 mM of unlabeled ATP or 10 μCi of γ-32P ATP for 20 min at 30° C. The products of this reaction were separated by SDS-PAGE and analyzed either by immunoblotting using anti-pS535 antibody or by autoradiography.

[7] = tested on: Stat1; test: Stat1 tyrosine phosphorylation in response to IFN-α, immunoblot; type: cell-based, human
[8] = tested on: IFNAR1 Ser535 phosphorylation; type: cell-based, human; remark: listed apart in the source
[9] = tested on: IFNAR1; type: cell-based, human
[10] = tested on: IFNAR1 Ser532 phosphorylation; type: cell-based, human
[11] = target: T1, PKD2; test: Sangivamycin inhibition of PKD2 (FIGS. 37-38)
[12] = tested on: IFN signaling; test: Sangivamycin effect on IFN signaling (FIGS. 37-38)

## NC(=O)c1ccc(-c2nc(-c3ccc4c(c3)OCCO4)c(-c3ccccn3)[nH]2)cc1 [D4476]
[1]
  recruitment of β-Trcp2 to GST-IFNAR1 (phosphorylation-binding assay): noticeable inhibition
[2]
  Ser535 phosphorylation of IFNAR1 in response to TG: noticeably attenuated
  TG-induced phosphorylation of eIF2α: comparable induction
  eIF2a phosphorylation in VSV-infected cells: without affecting
  virus-induced S535 phosphorylation of IFNAR1: markedly attenuated
  virus-induced downregulation of IFNAR1: markedly attenuated

## OO [hydrogen peroxide]
[3]; HeLa cells
  phosphorylation of endogenous IFNAR1 on Ser535 in the absence of IFN-α: noticeably stimulated

## C[S+]([O-])c1ccc(-c2nc(-c3ccncc3)c(-c3ccc(F)cc3)[nH]2)cc1 (centres unmarked) [SB203580]
[1]
  recruitment of β-Trcp2 to GST-IFNAR1 (phosphorylation-binding assay): not inhibited

## Cn1c2ccccc2c2c3c(c4c5ccccc5n(CCC#N)c4c21)CNC3=O [Gö6976]
[1]
  recruitment of β-Trcp2 to GST-IFNAR1 (phosphorylation-binding assay): dramatic inhibition
[4]; U3A cells stably expressing Flag-IFNAR1, inhibitor pre-treatment
  induction of Ser535 phosphorylation of Flag-IFNAR1 by IFN-α: noticeably decreased
[4]; U3A cells stably expressing Flag-IFNAR1, no ligand
  basal Ser535 (degron) phosphorylation of overexpressed IFNAR1: neither the PKD inhibitor Gö6976 nor siRNA against PKD2 decreases
[5]
  inhibition of / specificity against PKD: shown to inhibit
[6]
  in vitro phosphorylation of GST-IFNAR1 on Ser535 by GST-PKD2: decreased the efficacy of IFNAR1 phosphorylation in a dose dependent manner

## O=S(=O)(NCCNC/C=C/c1ccc(Br)cc1)c1cccc2cnccc12 [H89]
[1]
  recruitment of β-Trcp2 to GST-IFNAR1 (phosphorylation-binding assay): noticeable inhibition

## VEGF
[7]; human umbilical vein endothelial cells, VEGF 100 ng/ml 2 h, IFN-α 15 min
  Stat1 phosphorylation in response to IFN-α: noticeably inhibits
[3]; U3A cells stably expressing Flag-IFNAR1, VEGF 100 ng/ml
  phosphorylation of Flag-IFNAR1 on Ser535: increased
[3]; U3A-Flag-IFNAR1 cells, VEGF treatment
  ubiquitination of IFNAR1: stimulated

## NCCNS(=O)(=O)c1ccc(Cl)c2ccncc12 [CKI-7]
[2]
  ligand-independent Ser535 phosphorylation of Flag-IFNAR1: decreased

## C/C=C(/C)C(=O)O[C@H]1C(C)=C2[C@H]([C@@H]1OC(=O)CCCCCCC)[C@@](C)(OC(C)=O)C[C@H](OC(=O)CCC)[C@@]1(O)[C@H]2OC(=O)[C@@]1(C)O [thapsigargin]
[7]; 293T cells pre-treated with TG 1 μM 4 h, IFNα 50 IU/ml 30 min
  tyrosine phosphorylation of Stat1 induced by IFN-α: noticeably decreased
[2]; 293T cells, TG 1 μM 30 min
  activation of PERK assessed via phosphorylation of eIF2α: caused activation of PERK
[8]; 2fTGH-derived Tyk2 WT vs KR cells, 30 min
  Ser535 phosphorylation of IFNAR1 in cells with wild type (WT) or catalytically inactive (KR) Tyk2: comparable levels
[8]; 293T cells, TG 1 μM 30 min, DTT 5 mM 30 min
  phosphorylation of endogenous IFNAR1 on Ser535 in the absence of IFN: stimulated
[9]; 293T cells treated with cycloheximide, TG 1 μM
  half life of IFNAR1: decreased
[9]; human 293T cells, TG 1 μM, within two hours, absence of IFN
  levels of IFNAR1: decreased
[9]; human fibrosarcoma cells with WT or KR Tyk2 and 293T cells
  ubiquitination of IFNAR1: induced
[10]; Flag-IFNAR1 in 293T cells, TG 1 μM
  extent of ubiquitination of wild type IFNAR1: noticeably increased
[10]; HeLa cells, TG 1 μM 30 min
  phosphorylation of endogenous IFNAR1 on Ser532 and Ser535: led to phosphorylation of endogenous IFNAR1 on both Ser532 and Ser535

## CN(C)CCCn1cc(C2=C(c3c[nH]c4ccccc34)C(=O)NC2=O)c2ccccc21 [Bis I, bisindolylmaleimide I]
[1]
  recruitment of β-Trcp2 to GST-IFNAR1 (phosphorylation-binding assay): did not affect

## CN [methylamine HCl]
[9]; 293T cells pre-treated with MA 20 mM 1 h
  thapsigargin-induced decrease of IFNAR1 levels: prevented

## NC(=O)c1cn([C@@H]2O[C@H](CO)[C@@H](O)[C@H]2O)c2ncnc(N)c12 [sangivamycin]
[11]
  inhibition of PKD2: inhibits
[12]
  efficiency of IFN signaling: increases the efficiency of IFN signaling

## CNC(=O)c1cc(Oc2ccc(NC(=O)Nc3ccc(Cl)c(C(F)(F)F)c3)cc2)ccn1 [BAY 43-9006]
[1]
  recruitment of β-Trcp2 to GST-IFNAR1 (phosphorylation-binding assay): not inhibited
